“Also recorded” adds a separate entry of the source. Counter-ions that a name gives are not always drawn.
Legend:
cell degeneration = conditions: presence of uncoupled mitochondria; cited from earlier work
[1] = sublingual administration; assay type: in vivo
Source text: The NADH is merely placed underneath the tongue and resorbed. Unlike the oral form of NADH described in U.S. Pat. No. 5,332,727, a sublingual form should not be coated with an acid stable protective coating.

Parkinson's disease [2] = conditions: earlier patents; cited from earlier work
[3] = compatibility with lactose; assay type: physicochemical; conditions: lactose as filler
Source text: Suitable fillers for use with NADH and NADPH include: mannitol, microcrystalline cellulose, carboxymethyl cellulose; and dibasic calcium phosphate. Other suitable fillers will become apparent to those skilled in the art.

skin cells = experiment: topical application: skin cell life, water uptake, wrinkles; assay type: in vivo
Source text: (§1) The NADH encapsulated by the liposomes is simply applied topically to the skin, and is rubbed into the skin to ensure penetration.

Parkinson's disease [4] = experiment: nasal administration in Parkinson's disease; assay type: in vivo, human
Source text: (§2) However, I have now discovered that NADH and/or NADPH is also effective when administered topically (as described above for prolonging the life of skin cells and reducing wrinkles), sublingually, rectally and nasally.

[5] = after intravenous application; cited from earlier work
Alzheimer's disease [6] = conditions: orally or intravenously; cited from earlier work
Parkinson's disease [7] = conditions: intravenous, patients with Parkinson's disease; cited from earlier work
mitochondria = experiment: stimulation of mitochondrial energy production of skin cells; assay type: cell-based
Source text: as §1

[8] = nasal absorption and transport to the brain; assay type: in vivo; conditions: inhaled through nasal passages
Source text: For a powder spray, the NADH is simply ground into a fine powder and atomized from a spray bottle. Preferably, pure NADH is used for the powder spray, however, it can be used in conjunction with a filler, such as mannitol, as described below.

[9] = rectal administration (suppositories); assay type: in vivo
Method: It has also been discovered that good results are obtained when NADH is administered rectally. […] NADH may be administered rectally in the form of suppositories. A suitable suppository formulations are: […]

mitochondrial enzymes = experiment: stimulation of enzymes essential for the energy production of skin cells; assay type: cell-based; conditions: topical
Source text: In accordance with the invention, an NADH and/or NADPH composition is provided for topical application to the skin. […] The enzymes stimulated are principally the mitochondrial enzymes. The NADH and/or NADPH can be incorporated into a skin compatible cream, lotion or cosmetic, or can be combined with micelles of lipophilic substances. Liposomes are preferred vesicles for delivering the greatest dosages of NADH and/or NADPH into the skin.

[10] = oral form; cited from earlier work
Parkinsonian patients = experiment: motor system in Parkinsonian patients; assay type: in vivo, human; conditions: sublingual, rectal or nasal; single 5 to 500 mg, daily 5 to 1,500 mg
Method: A suitable single dose of NADH and/or NADPH for sublingual, rectal or nasal application is 5 to 500 mg, preferably 25 to 100 mg. A suitable daily dose is 5 to 1,500 mg, preferably 25 to 300 mg.

[11] = dissolution in fluids secreted by the olfactory mucous membrane; assay type: physicochemical; conditions: fluids of the olfactory epithelium
Method: Thus, in accordance with the invention, the NADH may be administered to the nasal cavity of a patient afflicted with Parkinson's disease, Alzheimer's disease or mental depression. The NADH may be applied alone or in combination with other substances, for example, a pharmaceutically acceptable carrier or an agent that facilitates the transfer of the NADH through the nasal mucosa. The NADH is administered intranasally as a powder, spray, gel, ointment, infusion, injection or nose drops. The NADH is delivered to the nasal cavity. It is preferred that the NADH be delivered to the olfactory area in the upper third of the nasal cavity, and particularly to the olfactory neuroepithelium in order to promote transport of the NADH into the peripheral olfactory neurons rather than the capillaries within the respiratory epithelium. It is preferred that the transport of NADH to the brain be by means of the nervous system rather than the circulatory system so that the blood-brain barrier from the bloodstream into the brain is circumvented. However, good results can also be obtained through the bloodstream. […] The NADH may be combined with a carrier or other substance that fosters dissolution within nasal secretions, such as the ganglioside GM-1 or the phospolipid phosphatidylserine, or emulsifiers such as polysorbate 80. […]

stability against pH = assay type: physicochemical
Source text: The NADH may be entrapped in the liposomes in either of two ways. The NADH may be dissolved in the organic solvent together with the lipid(s) and the detergent(s) during the liposome formation. By this procedure, the NADH will be present in the lipid film before the film is solubilized. Alternatively, the NADH may be entrapped by dissolving it in the aqueous solvent (preferably buffered) before the lipid film is exposed to the aqueous solvent. It is important that the aqueous solution of NADH not have a pH below 7 as NADH (and NADPH) are very unstable at pHs below 7. This second method of entrapment (i.e., dissolving NADH in aqueous solution) is preferred.

[12] = shelf/storage stability of pure substance and formulations; assay type: physicochemical; conditions: protected from light
Source text: (§3) Although NADH and/or NADPH may be used by themselves in pure form (they are quite stable in compressed form when protected from light), it is preferred that they be combined in a galenic formulation with a stabilizer, and most preferably with both a stabilizer and a filler. The use of a stabilizer is preferred to prevent oxidation of NADH and NADPH to NAD^+ and […] , respectively. Although, NADH and NADPH are active for the variety of therapeutic effects discussed above, NAD^+ and NADP^+ are ineffective. Therefore, oxidation of NADH and NADPH must be prevented during storage to provide for a reasonable shelf life. […] NADH/NADPH formulations containing such stabilizers are stable for up to two years. Other various stabilizers will become apparent tc those skilled in the art.
In general, a preferred formulation will include about 3 to 10% by weight NADH and/or NADPH; about 1 to 10% by weight stabilizer; and the remainder as filler. Such a formulation, after being compressed into a pill and coated, is stable for over 24 months.

Alzheimer's disease [13] = experiment: nasal administration in Alzheimer's disease; assay type: in vivo, human
Source text: as §2

[14] = system: skin proliferation layer cells; assay type: in vivo; conditions: topical; for penetration of cutis and entry into cells of the skin proliferation layer: radiolabelled
[15] = therapeutic activity of the oxidized forms; conditions: in vivo
Source text: as §3

SMILES	effectiveness when administered sublingually [1]	usefulness/effectiveness in Parkinson's disease (Parkinson's disease [2])	cell life (skin cells)	water uptake by the cell / wrinkle formation (skin cells)	degradation in plasma and blood [5]	effectiveness in Alzheimer's disease (Alzheimer's disease [6])	beneficial effect (Parkinson's disease [7])	duration of beneficial effect (Parkinson's disease [7])	distribution to mitochondria and stimulation of energy production of the cell (mitochondria)	stimulation of enzymes essential for energy production of skin cells (mitochondrial enzymes)	absorption by the intestine [10]	effect on motor system (Parkinsonian patients)	dissolution in nasal secretions [11]	stability at pH below 7 (stability against pH)	stability in pure compressed form [12]	absorption by the skin and uptake by the skin cells [14]	entry into cells of the proliferation layer, not encapsulated by liposomes [14]	penetration of cutis and entry into cells of the skin proliferation layer [14]	therapeutic effectiveness of oxidized forms [15]	other results
C[C@@H](O)CC(=O)O [D(-)-β-hydroxybutyrate sodium salt]	–	–	–	–	–	–	–	–	–	–	–	–	–	–	–	–	–	–	–	inhibition of cell degeneration (cell degeneration): inhibited cell degeneration resulting from the presence of uncoupled mitochondria in a dose dependent manner
NC(=O)C1=CN([C@@H]2O[C@H](COP(=O)(O)OP(=O)(O)OC[C@H]3O[C@@H](n4cnc5c(N)ncnc54)[C@H](O)[C@@H]3O)[C@@H](O)[C@H]2O)C=CC1 [NADH, nicotinamide adenine dinucleotide in its reduced form]	effective when administered sublingually	effective in the treatment of Parkinson's disease; also recorded: useful in the treatment of Parkinson's Disease	prolonged cell life	increased water uptake by the cell, thereby reducing wrinkle formation	not rapidly degraded in the plasma and blood	effective in the treatment of Parkinson's disease and Alzheimer's disease	remarkable beneficial effect	at least 24 hours	goes to the mitochondria where it stimulates the energy production of the cell	stimulate certain enzymes which are essential for the energy production of the cells	absorbed by the intestine	improve the motor system in Parkinsonian patients	capable of at least partially dissolving in the fluids	very unstable	quite stable	absorbed by the skin and penetrate the cutis to be taken up by the skin cells	enters the cells of the proliferation layer	crosses the cutis and enters the cells which comprise the skin proliferation layer	–	speed of results, sublingual [1]: very fast results; reaction with lactose [3]: reacts with NADH; effectiveness by nasal application in Parkinson's disease (Parkinson's disease [4]; nasal): particularly effective in the treatment of Alzheimer's disease and Parkinson's disease; therapeutic effects, nasal vs oral form (Parkinson's disease [4]; nasal powder spray): same therapeutic effects as the oral form; nasal absorption and transport to the brain [8]: travels directly to the brain, circumventing the blood-brain barrier; also recorded: absorbed by the mucosa of the nose and travels to the brain through the olfactory neural pathway; results when administered rectally [9]: good results; speed of results, rectal ([9]; compared with nasal or sublingual): not obtained as quickly as in the case of nasal or sublingual administration; effectiveness by nasal application in Alzheimer's disease (Alzheimer's disease [13]): particularly effective in the treatment of Alzheimer's disease; speed of results, nasal (Alzheimer's disease [13]): very fast results
NC(=O)C1=CN([C@@H]2O[C@H](COP(=O)(O)OP(=O)(O)OC[C@H]3O[C@@H](n4cnc5c(N)ncnc54)[C@H](OP(=O)(O)O)[C@@H]3O)[C@@H](O)[C@H]2O)C=CC1 [NADPH, nicotinamide adenine phosphate dinucleotide in its reduced form]	effective when administered sublingually	effective in the treatment of Parkinson's disease; also recorded: useful in the treatment of Parkinson's Disease	prolonged cell life	increased water uptake by the cell, thereby reducing wrinkle formation	not rapidly degraded in the plasma and blood	effective in the treatment of Parkinson's disease and Alzheimer's disease	remarkable beneficial effect	at least 24 hours	goes to the mitochondria where it stimulates the energy production of the cell	stimulate certain enzymes which are essential for the energy production of the cells	absorbed by the intestine	improve the motor system in Parkinsonian patients	capable of at least partially dissolving in the fluids	very unstable	quite stable	absorbed by the skin and penetrate the cutis to be taken up by the skin cells	enters the cells of the proliferation layer	crosses the cutis and enters the cells which comprise the skin proliferation layer	–	–
NC(=O)c1ccc[n+]([C@@H]2O[C@H](COP(=O)([O-])OP(=O)(O)OC[C@H]3O[C@@H](n4cnc5c(N)ncnc54)[C@H](OP(=O)(O)O)[C@@H]3O)[C@@H](O)[C@H]2O)c1 [NADP^+]	–	–	–	–	–	–	–	–	–	–	–	–	–	–	–	–	–	–	ineffective	–
NC(=O)c1ccc[n+]([C@@H]2O[C@H](COP(=O)([O-])OP(=O)(O)OC[C@H]3O[C@@H](n4cnc5c(N)ncnc54)[C@H](O)[C@@H]3O)[C@@H](O)[C@H]2O)c1 [NAD^+]	–	–	–	–	–	–	–	–	–	–	–	–	–	–	–	–	–	–	ineffective	–

— patent US5952312A, “NADH and NADPH therapeutic agents for nasal, sublingual, rectal and dermal administration” (Birkmayer Pharmaceuticals, Inc., priority 1998, dated 1999)
